# From patent US10494397B2, “Rebaudioside analogs” (PepsiCo, Inc., priority 2016, dated 2019)
# What was measured:
# Tasters [1] = assay: Sensory evaluation of test material as a sweetener (taster panel, scale of 1 to 10); type: in vivo, human; parameters: key: not observed or only minimally observed (−); highly observed (+++); conditions: for Sweet Intensity: averaged taster scores, scale 1 to 10 with Reb A 400 ppm = 5 and sucrose 6.5% = 10, noseclips, blinded; for Sweet Quality: based upon temporal profile (sweet onset, linger) and attributes such as syrupy, round, clean; for Bitterness: taster comments and scores converted into symbols
# Excerpt: Sample preparation protocol for testing material as a sweetener: Tasters wore noseclips and were blinded to the identity of the test material. Tasters sampled 400 ppm Rebaudioside A and 6.5 Brix sucrose prior to the test material. Reb A 400 ppm was assigned a 5 on the scale of 1 to 10 as shown in FIG. 8 and sucrose (6.5%) was assigned a 10 on the same scale. Tasters were asked to rinse their mouths 5 times with water between tasting each sample. Tasters were then given the test article and asked to rank the test article for sweetness on the noted scale. Tasters were also asked to provide comments about bitterness, linger, flavors, and any other perceptions.
# Numerical scores from all tasters were averaged and, taken together with comments regarding sweet quality, bitterness and off-tastes, converted into the symbols “−,” “+,” “++,” and “+++” to indicate whether a given characteristic was not observed or only minimally observed (−) or highly observed (+++). For example, a sample having a “−” in both sweet intensity and bitterness should be understood as a sample having minimal or no sweetness and minimal or no bitter flavor. By contrast, a sample having a “+++” in both sweet intensity and bitterness should be understood as a sample having highly observed sweet intensity and bitterness.
# Preparation of Reb A in this experiment: Prepare 400 ppm Reb A in water (pH=7): 40 mg of Rebaudioside A was dissolved with stirring in 100 ml of water at room temperature.
# Preparation of Sucrose in this experiment: Prepare 6.5% Sucrose in water (pH=7): weight 6.5 gr of Sucrose and dissolve it in 93.5 gr water (total 100 gr)
# • Sweet quality was based upon a temporal profile (sweet onset, linger) and attributes such as syrupy, round, clean.
# Tasters [2] = assay: Sweetness enhancement, Forced Choice Test; type: in vivo, human; parameters: key: not observed or only minimally observed (−); highly observed (+++); conditions: sweetener (4 Brix sucrose, 4 Brix HFCS or 200 ppm Rebaudioside A) with vs without test compound at a level below 1.5% SEV
# Description: Sample preparation protocol: For testing the material as a sweet/flavor modifying ingredient, two samples were prepared: a 4° Brix high-fructose corn syrup (HFCS) control solution and a 4° Brix HFCS solution with a known concentration of test ingredient.
# Sample Preparation: 4° Brix HFCS control solution was prepared by adding 50.89 grams of 78.60° Brix HFCS to 1000 g phosphoric acid base which was prepared by adding phosphoric acid dropwise into 1 L of Aquafina Water until pH 3.1 was obtained. pH was measured using a METTLER TOLEDO pH meter.
# In the case of a different Brix of HFCS starting syrup, the following formula can be used for the amount of HFCS required to make HFCS control solution. 4° Brix/100*1000 mL/(78.5° Brix/100)=50.96
# […] some low soluble compounds, Branson 2800 Ultra Sonic Bath was used to dissolve the material. If any cloudiness persisted, the sample solution was passed through a paper filter. Solubility was confirmed by shining a laser pointer through the solution. If no diffraction was observed then it was assumed that the material was soluble
# 12-16 tasters were presented with these two(2) numbered samples: one contained a sweetener such as 4Brix sucrose, 4 Brix high-fructose corn syrup or 200 ppm Rebaudioside A in phosphate buffer. […]
Structure (SMILES),Sweet Intensity (Tasters [1]),Sweet Quality (Tasters [1]),Bitterness (Tasters [1]),Enhancement (Tasters [2])
"C=C1C[C@@]23CC[C@H]4[C@@](C)(CCC[C@@]4(C)C(=O)O[C@@H]4OC[C@@H](O)[C@H](O)[C@H]4O)[C@@H]2CC[C@]1(O[C@@H]1O[C@H](CO)[C@@H](O)[C@H](O[C@@H]2O[C@H](CO)[C@@H](O)[C@H](O)[C@H]2O)[C@H]1O[C@@H]1O[C@H](CO)[C@@H](O)[C@H](O)[C@H]1O)C3 [Compound 7C, Rebaudioside B Xyloside]",+++,,,
"C=C1C[C@@]23CC[C@H]4[C@@](C)(CCC[C@@]4(C)C(=O)N[C@@H](C(=O)OC)C(C)C)[C@@H]2CC[C@]1(O[C@@H]1O[C@H](CO)[C@@H](O)[C@H](O[C@@H]2O[C@H](CO)[C@@H](O)[C@H](O)[C@H]2O)[C@H]1O[C@@H]1O[C@H](CO)[C@@H](O)[C@H](O)[C@H]1O)C3 [Compound 5D1, Rebaudioside B- D-Valine Methyl ester]",−,−,+++,
"OC[C@H]1O[C@@](CO)(O[C@H]2O[C@H](CO)[C@@H](O)[C@H](O)[C@H]2O)[C@@H](O)[C@@H]1O [Sucrose, reference compound]",,+++,−,
"C=C1C[C@@]23CC[C@H]4[C@@](C)(CCC[C@@]4(C)C(=O)O[C@@H]4OC[C@@H](O)[C@H](O)[C@H]4O)[C@@H]2CC[C@]1(O[C@@H]1O[C@H](CO)[C@@H](O)[C@H](O[C@@H]2O[C@H](CO)[C@@H](O)[C@H](O)[C@H]2O)[C@H]1O[C@@H]1O[C@@H](C)[C@H](O)[C@@H](O)[C@H]1O)C3 [Compound 7E, Rebaudioside C Xyloside]",−,−,−,
"C=C1C[C@@]23CC[C@H]4[C@@](C)(CCC[C@@]4(C)C(=O)N[C@H](Cc4ccccc4)C(=O)OC)[C@@H]2CC[C@]1(O[C@@H]1O[C@H](CO)[C@@H](O)[C@H](O[C@@H]2O[C@H](CO)[C@@H](O)[C@H](O)[C@H]2O)[C@H]1O[C@@H]1O[C@H](CO)[C@@H](O)[C@H](O)[C@H]1O)C3 [Compound 5E1, Rebaudioside B- D-Phenylalanine Methyl ester]",−,−,+++,
C=C1C[C@@]23CC[C@H]4[C@@](C)(CCC[C@@]4(C)C(=O)N[C@@H](C(=O)O)C(C)C)[C@@H]2CC[C@]1(O[C@@H]1O[C@H](CO)[C@@H](O)[C@H](O[C@@H]2O[C@H](CO)[C@@H](O)[C@H](O)[C@H]2O)[C@H]1O[C@@H]1O[C@H](CO)[C@@H](O)[C@H](O)[C@H]1O)C3 [Compound 5D2],+++,,−,
C=C1C[C@@]23CC[C@H]4[C@@](C)(CCC[C@@]4(C)C(=O)O[C@@H]4O[C@H](CO)[C@@H](O)[C@H](O)[C@H]4O)[C@@H]2CC[C@]1(O[C@@H]1O[C@H](CO)[C@@H](O)[C@H](O[C@@H]2O[C@H](CO)[C@@H](O)[C@H](O)[C@H]2O)[C@H]1O[C@@H]1O[C@H](CO)[C@@H](O)[C@H](O)[C@H]1O)C3 [Rebaudioside A],+++,,,
"C=C1C[C@@]23CC[C@H]4[C@@](C)(CCC[C@@]4(C)C(=O)O[C@@H]4O[C@H](CO)[C@@H](O)[C@H](O)[C@@H]4O)[C@@H]2CC[C@]1(O[C@@H]1O[C@H](CO)[C@@H](O)[C@H](O[C@@H]2O[C@H](CO)[C@@H](O)[C@H](O)[C@H]2O)[C@H]1O[C@@H]1O[C@H](CO)[C@@H](O)[C@H](O)[C@H]1O)C3 [Compound 7A, Rebaudioside B Mannoside]",+++,,,
"C=C1C[C@@]23CC[C@H]4[C@@](C)(CCC[C@@]4(C)C(=O)O[C@@H]4O[C@H](CO)[C@@H](O)[C@H](O)[C@H]4O[C@@H]4O[C@H](CO)[C@@H](O)[C@H](O)[C@H]4O)[C@@H]2CC[C@]1(O[C@@H]1O[C@H](CO)[C@@H](O)[C@H](O[C@@H]2O[C@H](CO)[C@@H](O)[C@H](O)[C@H]2O)[C@H]1O[C@@H]1O[C@@H](C)[C@H](O)[C@@H](O)[C@H]1O)C3 [Compound 7G, Rebaudioside K]",−,−,−,−
"C=C1C[C@@]23CC[C@H]4[C@@](C)(CCC[C@@]4(C)C(=O)O[C@@H]4O[C@H](CO)[C@H](O)[C@H](O)[C@H]4O)[C@@H]2CC[C@]1(O[C@@H]1O[C@H](CO)[C@@H](O)[C@H](O[C@@H]2O[C@H](CO)[C@@H](O)[C@H](O)[C@H]2O)[C@H]1O[C@@H]1O[C@@H](C)[C@H](O)[C@@H](O)[C@H]1O)C3 [Compound 7F, Rebaudioside C Galactoside]",−,−,−,
"C=C1C[C@@]23CC[C@H]4[C@@](C)(CCC[C@@]4(C)C(=O)N[C@@H](C)C(=O)OC)[C@@H]2CC[C@]1(O[C@@H]1O[C@H](CO)[C@@H](O)[C@H](O[C@@H]2O[C@H](CO)[C@@H](O)[C@H](O)[C@H]2O)[C@H]1O[C@@H]1O[C@H](CO)[C@@H](O)[C@H](O)[C@H]1O)C3 [Compound 5B1, Rebaudioside B- L-Alanine Methyl ester]",,−,+++,
"C=C1C[C@@]23CC[C@H]4[C@@](C)(CCC[C@@]4(C)C(=O)NCC(=O)O)[C@@H]2CC[C@]1(O[C@@H]1O[C@H](CO)[C@@H](O)[C@H](O[C@@H]2O[C@H](CO)[C@@H](O)[C@H](O)[C@H]2O)[C@H]1O[C@@H]1O[C@H](CO)[C@@H](O)[C@H](O)[C@H]1O)C3 [Compound 5A2, Rebaudioside B-Glycine]",+++,,,+++
"C=C1C[C@@]23CC[C@H]4[C@@](C)(CCC[C@@]4(C)C(=O)N[C@H](C)C(=O)OC)[C@@H]2CC[C@]1(O[C@@H]1O[C@H](CO)[C@@H](O)[C@H](O[C@@H]2O[C@H](CO)[C@@H](O)[C@H](O)[C@H]2O)[C@H]1O[C@@H]1O[C@H](CO)[C@@H](O)[C@H](O)[C@H]1O)C3 [Compound 5C1, Rebaudioside B- D-Alanine Methyl ester]",,−,,
C=C1C[C@@]23CC[C@H]4[C@@](C)(CCC[C@@]4(C)C(=O)N[C@H](Cc4ccccc4)C(=O)O)[C@@H]2CC[C@]1(O[C@@H]1O[C@H](CO)[C@@H](O)[C@H](O[C@@H]2O[C@H](CO)[C@@H](O)[C@H](O)[C@H]2O)[C@H]1O[C@@H]1O[C@H](CO)[C@@H](O)[C@H](O)[C@H]1O)C3 [Compound 5E2],,,−,
"C=C1C[C@@]23CC[C@H]4[C@@](C)(CCC[C@@]4(C)C(=O)NCC(=O)OC)[C@@H]2CC[C@]1(O[C@@H]1O[C@H](CO)[C@@H](O)[C@H](O[C@@H]2O[C@H](CO)[C@@H](O)[C@H](O)[C@H]2O)[C@H]1O[C@@H]1O[C@H](CO)[C@@H](O)[C@H](O)[C@H]1O)C3 [Compound 5A1, Rebaudioside B—Glycine Methyl ester]",−,−,+++,
